For orientation: IC50 means the concentration needed to halve the response being measured.

The structures appear in SMILES notation.

Eleven molecules from ChEMBL document CHEMBL5241112, “Insights into the recent progress in the medicinal chemistry of pyranopyrimidine analogs” (RSC Med Chem, 2022) can be followed below.

Assay [1] concerns Staphylococcus aureus. Nature of the assay: Antibacterial activity against Staphylococcus aureus assessed as diameter of inhibition zone at 100 ug/ml by disc diffusion method. The class given is functional. Particulars: read-out: DIZ. On the technique in general: In agar diffusion tests the substance spreads into inoculated agar from a disc or well.
Assay [2] concerns Klebsiella pneumoniae. Nature of the assay: Antibacterial activity against Klebsiella pneumoniae assessed as diameter of inhibition zone at 100 ug/ml by disc diffusion method. The class given is functional. Particulars: read-out: DIZ.
In assay [3] the test system is Escherichia coli. In words: Antibacterial activity against Escherichia coli assessed as diameter of inhibition zone at 100 ug/ml by disc diffusion method. The assay is classed as functional. Particulars: read-out: DIZ.
The subject of the next assay is Aspergillus flavus. Nature of the assay: Antifungal activity against Aspergillus flavus assessed as diameter of inhibition zone at 100 ug/ml by agar disc diffusion method. The assay is classed as functional. Particulars: read-out: DIZ.
Assay [4] can be described thus: Antioxidant activity assessed as DPPH radical scavenging activity at 100 ug/ml incubated for 30 mins by spectrophotometric analysis. The class given is functional. Particulars: dose 100.0 µg/ml.
The test system of assay [5] is Bacillus cereus. Nature of the assay: Antimicrobial activity against Bacillus cereus assessed as diameter of inhibition zone at 2.5 mg/ml incubated for 12 hrs by agar disk diffusion method. The assay is classed as functional. Particulars: read-out: DIZ.
In assay [6] the test system is Staphylococcus aureus. In words: Antimicrobial activity against Staphylococcus aureus assessed as diameter of inhibition zone at 5.0 mg/ml incubated for 12 hrs by agar disk diffusion method. Particulars: read-out: DIZ. The class given is functional.
Assay [7] has as its system Staphylococcus aureus. Nature of the assay: Antimicrobial activity against Staphylococcus aureus assessed as diameter of inhibition zone at 1.2 mg/ml incubated for 12 hrs by agar disk diffusion method. The class given is functional. Particulars: read-out: DIZ.
The subject of assay [8] is Pseudomonas aeruginosa. Nature of the assay: Antimicrobial activity against Pseudomonas aeruginosa assessed as diameter of inhibition zone at 2.5 mg/ml incubated for 12 hrs by agar disk diffusion method. The assay is classed as functional. Particulars: read-out: DIZ.
The subject of assay [9] is Bacillus cereus. In words: Antimicrobial activity against Bacillus cereus assessed as diameter of inhibition zone at 1.2 mg/ml incubated for 12 hrs by agar disk diffusion method. The class given is functional. Particulars: read-out: DIZ.
Assay [10] concerns Pseudomonas aeruginosa. Nature of the assay: Antimicrobial activity against Pseudomonas aeruginosa assessed as diameter of inhibition zone at 1.2 mg/ml incubated for 12 hrs by agar disk diffusion method. The class given is functional. Particulars: read-out: DIZ.
Assay [11] has as its system Pseudomonas aeruginosa. In words: Antimicrobial activity against Pseudomonas aeruginosa assessed as diameter of inhibition zone at 5.0 mg/ml incubated for 12 hrs by agar disk diffusion method. The class given is functional. Particulars: read-out: DIZ.
Assay [12] concerns Bacillus cereus. In words: Antimicrobial activity against Bacillus cereus assessed as diameter of inhibition zone at 5.0 mg/ml incubated for 12 hrs by agar disk diffusion method. The assay is classed as functional. Particulars: read-out: DIZ.
In assay [13] the test system is Escherichia coli. Nature of the assay: Antimicrobial activity against Escherichia coli assessed as diameter of inhibition zone at 5.0 mg/ml incubated for 12 hrs by agar disk diffusion method. The class given is functional. Particulars: read-out: DIZ.
The subject of assay [14] is Staphylococcus aureus. In words: Antimicrobial activity against Staphylococcus aureus assessed as diameter of inhibition zone at 2.5 mg/ml incubated for 12 hrs by agar disk diffusion method. Particulars: read-out: DIZ. The assay is classed as functional.
In assay [15] the test system is Escherichia coli. Nature of the assay: Antimicrobial activity against Escherichia coli assessed as diameter of inhibition zone at 2.5 mg/ml incubated for 12 hrs by agar disk diffusion method. The assay is classed as functional. Particulars: read-out: DIZ.
For the next assay, the system named is MCF7. Nature of the assay: Antiproliferative activity against human MCF7 cells assessed as reduction in cell proliferation. The class given is functional, cell-based.
Assay [16] in a line: Antiproliferative activity against human […] cells assessed as reduction in cell proliferation. The assay is classed as functional, cell-based.
The next assay concerns HepG2. Nature of the assay: Antiproliferative activity against human HepG2 cells assessed as reduction in cell proliferation. The assay is classed as functional, cell-based.
Assay [17] deals with Klebsiella pneumoniae. Nature of the assay: Antimicrobial activity against Klebsiella pneumoniae ATCC 15380 assessed as diameter of inhibition zone at 20 mg/ml incubated for 24 hrs by disk diffusion method. Particulars: read-out: DIZ. The assay is classed as functional.
Assay [18] has as its system Pseudomonas aeruginosa. In words: Antimicrobial activity against Pseudomonas aeruginosa ATCC 27853 assessed as diameter of inhibition zone at 20 mg/ml incubated for 24 hrs by disk diffusion method. The assay is classed as functional. Particulars: read-out: DIZ.
In assay [19] the test system is Escherichia coli. In words: Antimicrobial activity against Escherichia coli ATCC 25922 assessed as diameter of inhibition zone at 20 mg/ml incubated for 24 hrs by disk diffusion method. The assay is classed as functional. Particulars: read-out: DIZ.
Assay [20] is described as follows: Antioxidant activity assessed as DPPH radical scavenging activity at 75 ug/ml incubated for 30 mins by spectrophotometric analysis. The assay is classed as functional. Particulars: dose 75.0 µg/ml. (In general: The DPPH test is a chemical assay of radical scavenging.)
The test system of the next assay is Salmonella typhimurium. In words: Antimicrobial activity against Salmonella typhimurium ATCC 19430 assessed as diameter of inhibition zone at 20 mg/ml incubated for 24 hrs by disk diffusion method. The assay is classed as functional, Salmonella enterica subsp. enterica serovar Typhimurium. Particulars: Salmonella enterica, read-out: DIZ.
Another assay has as its system Candida albicans. Nature of the assay: Antifungal activity against Candida albicans assessed as diameter of inhibition zone at 100 ug/ml by agar disc diffusion method. The class given is functional. Particulars: read-out: DIZ.
The subject of the next assay is Bacillus subtilis. Nature of the assay: Antibacterial activity against Bacillus subtilis assessed as diameter of inhibition zone at 100 ug/ml by disc diffusion method. The class given is functional. Particulars: read-out: DIZ.

As for `CCOC(=O)C1=C(C)Oc2nc(C)n(Cc3cn(-c4cccc(F)c4)nn3)c(=O)c2C1c1ccc([N+](=O)[O-])cc1` (stereo not given), the zone of inhibition at 100 µg/mL in the assay with Staphylococcus aureus [1] amounted to 14.5 mm; in the assay on Klebsiella pneumoniae [2], 14.5 mm; in the assay on Escherichia coli [3] it was 15.5 mm; in the assay on Aspergillus flavus, 14.5 mm.
As to `O=c1c(C2c3c(O)ncnc3Oc3[nH]nc(-c4ccccc4)c32)coc2ccccc12` (stereo not given), the Activity in assay [4] came out at 87.5%.
On to `N#CC1=C(N)Oc2[nH]c(=O)[nH]c(=O)c2C1c1ccncc1` (stereo not given), for which the zone of inhibition at 2500 µg/mL with Bacillus cereus [5] worked out at 15 mm; in the assay on Pseudomonas aeruginosa [8] it was 16 mm; in the assay on Staphylococcus aureus [14], 10 mm; in the assay on Escherichia coli [15], 13 mm. Besides, the zone of inhibition at 5000 µg/mL with Staphylococcus aureus [6] was 14 mm; in the assay on Pseudomonas aeruginosa [11] it was 19 mm; with Bacillus cereus [12], 19 mm; with Escherichia coli [13] it was 17 mm. Moreover, the zone of inhibition at 1200 µg/mL in the assay on Staphylococcus aureus [7] is 8 mm; in the assay with Bacillus cereus [9], 10 mm; with Pseudomonas aeruginosa [10] it was 12 mm.
In the case of `NNc1ncnc2c1C(c1cn(-c3ccccc3)nc1-c1ccccc1)c1c(ccc3ccccc13)O2` (stereo not given), the IC50 in the assay with MCF7 came to 9.89 µM; in assay [16], 4.9 µM; in the assay with HepG2, 9.26 µM.
Regarding `Cc1ccc(C2C(C#N)=C(N)Oc3[nH]c(=O)[nH]c(=O)c32)s1` (stereo not given), the zone of inhibition at 20000 µg/mL is 16 mm in the assay on Klebsiella pneumoniae [17], 18 mm with Pseudomonas aeruginosa [18] and 14 mm in the assay with Escherichia coli [19].
As to `N=c1c2c(ncn1N)Oc1[nH]nc(-c3ccccc3)c1C2c1coc2ccccc2c1=O` (stereo not given), the Activity in [20] was 85.5%.
Turning to `Cc1ccc(S(=O)(=O)Nn2cnc3c(c2=N)C(c2cn(-c4ccccc4)nc2-c2ccccc2)c2c(ccc4ccccc24)O3)cc1` (stereo not given), the values for the IC50 (with MCF7; in [16]; in the assay with HepG2) were 9.29 µM, 4.9 µM and 10 µM, respectively.
On the same counts, the results for `c1ccc(-c2nn(-c3ccccc3)cc2C2c3c(ccc4ccccc34)Oc3ncn4ncnc4c32)cc1` (stereo not given) are 10 µM, 4.9 µM and 9.04 µM.
Take `N#CC1=C(N)Oc2[nH]c(=O)[nH]c(=O)c2C1c1ccc[nH]1` (stereo not given): the zone of inhibition at 20000 µg/mL with Salmonella typhimurium was 20 mm; in the assay with Klebsiella pneumoniae [17], 16 mm.
With `CCOC(=O)C1=C(C)Oc2nc(C)n(Cc3cn(-c4ccc(Cl)cc4)nn3)c(=O)c2C1c1ccc([N+](=O)[O-])cc1` (stereo not given), the zone of inhibition at 100 µg/mL in the assay on Staphylococcus aureus [1] was determined as 15 mm; with Klebsiella pneumoniae [2] it was 16.5 mm; in the assay on Candida albicans it was 17.5 mm; in the assay on Escherichia coli [3], 17 mm; in the assay on Aspergillus flavus, 17.5 mm; in the assay on Bacillus subtilis, 13 mm.
Turning to `N=c1c2c(ncn1-c1ccccc1O)Oc1ccc3ccccc3c1C2c1cn(-c2ccccc2)nc1-c1ccccc1` (stereo not given), the IC50 with MCF7 is 2.67 µM; in assay [16], 4.9 µM; in the assay on HepG2 it was 3.41 µM.
